Test results as given in PMC8876135, “The Catestatin-Derived Peptides Are New Actors to Fight the Development of Oral Candidosis” (International Journal of Molecular Sciences, 2022).
Values after ≈ are worked out from the molar mass of the structure shown. Read-outs that look alike come from different tables or passages of the source. Non-standard residues stand in square brackets, D forms with d. Residues, ends and D or L forms follow the SMILES beside them.

Tests used:
[1] = cited from earlier work
Excerpt: Host-defense peptides (HDPs) have emerged as new attractive candidates in the development of new antimicrobial agents. In addition, HDPs have been proven to be potent immune effectors via the orchestration of immune responses.

Candida glabrata “S” = assay type: cell-based; settings: 24 h, pH 5.6
Experimental: (§1) Strains of Candida albicans, Candida tropicalis and Candida glabrata, frequently found in cases of oral candidosis, were tested for L-bCtl and D-bCtl antimicrobial activity. The sensitive strain of C. albicans (ATCC 10231^TM) was provided by ATCC (Manassas, VA, USA). The resistant strain of C. albicans, the sensitive and resistant strains of C. tropicalis as well as the sensitive and resistant strains of C. glabrata were kindly provided by Dr Valérie Letscher-Bru (Laboratory of Parasitolology and Medical Mycology, Strasbourg, France).
(§2) Each Candida strain was first plated on agar plates and cultured for 24 h at 37 °C. After incubation, one colony per isolate was transferred into 5 mL of Sabouraud medium pH 5.6 (Sigma-Aldrich, Le Pont-de-Claix, France) supplemented with tetracycline (10 μg/mL) and cefotaxime (10 μg/mL) and incubated aerobically under agitation at 37 °C for 24 h. The resulting cultures were resuspended at an absorbance of 0.001 (OD600nm = 0.001) in Sabouraud medium. The OD600nm was evaluated with a spectrophotometer (BIO-RAD Smatspec^TM plus, Schiltigheim, France). In preliminary experiments, we tested RPMI-1640 culture and Sabouraud media. Similar data were obtained but the experiments were more reproducible with Sabouraud than with RPMI1640. Therefore, Sabouraud medium was used in the present study.
(§3) The yeasts (OD600nm = 0.001) were then plated on 96-well microplates and treated with different concentrations of the peptides of interest. After 24 h incubation at 37 °C under agitation, yeast growth was assessed by optical density (OD600nm) using a microplate spectrophotometer (Multiscan EX, Thermo Fisher Scientific, Waltham, MA, USA). All tests were performed in triplicate. The MIC (minimal inhibitory concentration), defined as the lowest concentration of drug able to inhibit 100% of the growth of a pathogen, was determined for the different peptides against all previously described Candida strains, using a modified Gompertz model.

Candida glabrata “R” = assay type: cell-based; settings: 24 h, pH 5.6
Experimental: as §1, §2, §3

Candida albicans “R” = assay type: cell-based; settings: 24 h, pH 5.6
Experimental: as §1, §2, §3

Candida tropicalis “R” = assay type: cell-based; settings: 24 h, pH 5.6
Experimental: as §1, §2, §3

Candida tropicalis “S” = assay type: cell-based; settings: 24 h, pH 5.6
Experimental: as §1, §2, §3

C. albicans = settings: 24 h, 4 µM
Experimental: as §2, with “Similar data were obtained but the experiments were more reproducible with Sabouraud than with RPMI1640.” left out
The yeasts (OD600nm = 0.001) were then plated on 96-well microplates and treated with different concentrations of the peptides of interest. After 24 h incubation at 37 °C under agitation, yeast growth was assessed by optical density (OD600nm) using a microplate spectrophotometer (Multiscan EX, Thermo Fisher Scientific, Waltham, MA, USA). All tests were performed in triplicate.
The same method was used to evaluate the MICs of peptide/bovine serum albumin combinations (BSA).

[2] = tested on: Candida albicans “S” (ATCC 10231); assay type: cell-based; settings: ATCC 10231, 24 h, pH 5.6
Experimental: as §1, §2, §3

[3] = tested on: Candida albicans “S” (ATCC 10231); parameters: method as in Dartevelle et al. [28]; settings: ref Dartevelle et al. [28], cited from earlier work; for MIC C. albicans “S”: values marked *, MIC = 100% growth inhibition
“R” C. albicans = assay: Transmission electron microscopy of treated cells; assay type: cell-based, Candida albicans; settings: 1 × MIC and 10 × MIC, 1 h at 37 °C
Experimental: (§4) Precultures of sensitive and resistant Candida albicans strains were incubated for 2 h at 37 °C without shaking on glass bottom 24-well microplates previously treated with poly-L-lysine. The L-bCtl or D-bCtl peptides at concentrations of 1X MIC and 10X MIC were then added to the culture and incubated for 1 h at 37 °C with minimal shaking. The control samples correspond to the incubation of the different Candida albicans strains without any prior treatment. After 1 h incubation with or without each peptide of interest and a brief rinsing in 0.125 M cacodylate buffer, cells were fixed for 2 h 30 min in a 4% (v/v) glutaraldehyde buffered in 0.1 M sodium phosphate at pH 7.2. This step was followed with three 10 min washes in 0.1 M phosphate buffer at pH 7.2. Then the samples were post-fixed in a freshly prepared 2% (v/v) aqueous solution of potassium permanganate for 45 min at room temperature. The samples were washed three more times and dehydrated in graded series of ethanol of 7 min each. […]
(§5) Ultrathin sections were performed using a Reichert Jung Ultra-cut E ultra-microtome (Leica Microsystems, Nanterre, France) equipped with a diamond knife. […] Images were recorded on Kodak SO163 film (Sigma Aldrich, Saint-Quentin Fallavier, France). […]

“S” C. albicans = assay: Transmission electron microscopy of treated cells; assay type: cell-based, Candida albicans; settings: 1 × MIC and 10 × MIC, 1 h at 37 °C
Experimental: as §4, §5

In the case of `CSCC[C@H](NC(=O)[C@H](CO)NC(=O)[C@@H](N)CCCNC(=N)N)C(=O)N[C@@H](CCCNC(=N)N)C(=O)N[C@@H](CC(C)C)C(=O)N[C@@H](CO)C(=O)N[C@@H](Cc1ccccc1)C(=O)N[C@@H](CCCNC(=N)N)C(=O)N[C@@H](C)C(=O)N[C@@H](CCCNC(=N)N)C(=O)NCC(=O)N[C@@H](Cc1ccc(O)cc1)C(=O)NCC(=O)N[C@@H](Cc1ccccc1)C(=O)N[C@@H](CCCNC(=N)N)C(=O)O` [bCtl] (H-RSMRLSFRARGYGFR-OH), the “stability to bacterial degradation” value [1] is given as “resists bacterial degradation”, the “MIC Candida glabrata “S”” value (Candida glabrata “S”) is given as 38.2 µg/mL (≈ 20.5 µM) and the “MIC Candida glabrata “R”” value (Candida glabrata “R”) is given as 61.4 µg/mL (≈ 33 µM). The “MIC C. albicans “R”” value (Candida albicans “R”) was 9.6 µg/mL (≈ 5.16 µM), the “MIC Candida tropicalis “R”” value (Candida tropicalis “R”) was 2.0 µg/mL (≈ 1.08 µM) and the “MIC Candida tropicalis “S”” value (Candida tropicalis “S”) was 9.8 µg/mL (≈ 5.27 µM).

For `CSCC[C@H](NC(=O)[C@H](CO)NC(=O)[C@@H](N)CCCNC(=N)N)C(=O)N[C@@H](CCCNC(=N)N)C(=O)N[C@@H](CC(C)C)C(=O)N[C@@H](CO)C(=O)N[C@@H](Cc1ccccc1)C(=O)N[C@@H](CCCNC(=N)N)C(=O)N[C@@H](C)C(=O)N[C@@H](CCCNC(=N)N)C(=O)NCC(=O)N[C@@H](Cc1ccc(O)cc1)C(=O)NCC(=O)N[C@@H](Cc1ccccc1)C(=O)N[C@@H](CCCNC(=N)N)C(=O)NCC(=O)N1CCC[C@H]1C(=O)NCC(=O)N[C@@H](CC(C)C)C(=O)N[C@@H](CCC(N)=O)C(=O)N[C@@H](CC(C)C)C(=O)O` [bCts] (H-RSMRLSFRARGYGFRGPGLQL-OH), the inhibition (C. albicans) was “more than 90%”, the “MIC Candida glabrata “S”” value (Candida glabrata “S”) was greater than 100 µg/mL and the “MIC Candida glabrata “R”” value (Candida glabrata “R”) was greater than 100 µg/mL. For the same molecule, the “MIC C. albicans “S”” value [2] was 30 µg/mL (≈ 12.4 µM), the “MIC C. albicans “R”” value (Candida albicans “R”) was 50 µg/mL (≈ 20.6 µM) and the “MIC Candida tropicalis “R”” value (Candida tropicalis “R”) was 20 µg/mL (≈ 8.24 µM). For the same molecule, the “MIC Candida tropicalis “S”” value (Candida tropicalis “S”) was 50 µg/mL (≈ 20.6 µM).

For `CSCC[C@@H](NC(=O)[C@@H](CO)NC(=O)[C@H](N)CCCNC(=N)N)C(=O)N[C@H](CCCNC(=N)N)C(=O)N[C@H](CC(C)C)C(=O)N[C@H](CO)C(=O)N[C@H](Cc1ccccc1)C(=O)N[C@H](CCCNC(=N)N)C(=O)N[C@H](C)C(=O)N[C@H](CCCNC(=N)N)C(=O)NCC(=O)N[C@H](Cc1ccc(O)cc1)C(=O)NCC(=O)N[C@H](Cc1ccccc1)C(=O)N[C@H](CCCNC(=N)N)C(=O)O` [Peptide P1] (H-[dR][dS][dM][dR][dL][dS][dF][dR][dA][dR]G[dY]G[dF][dR]-OH; N-terminus and C-terminus assumed), the “MIC C. albicans “S” (as stated in discussion)” value ([3]; peptide alone, same figures as the * values of Tables 2 and 3) is listed as 5.5 µM (≈ 10.2 µg/mL), the “MIC C. albicans “S”” value [3] is listed as 5.5 * µg/mL and the “MIC C. albicans “S”” value ([3]; listed as D-form of bCtl) is listed as 5.5 µg/mL (≈ 2.96 µM). The TEM observation (“R” C. albicans) was “fungal membrane lysis”, the TEM observation (“S” C. albicans) was “fungal membrane lysis” and the “MIC Candida glabrata “S”” value (Candida glabrata “S”) was 13.4 µg/mL (≈ 7.2 µM). For the same molecule, the “MIC Candida glabrata “R”” value (Candida glabrata “R”) was 15.0 µg/mL (≈ 8.06 µM), the “MIC C. albicans “R”” value (Candida albicans “R”) was 9.6 µg/mL (≈ 5.16 µM) and the “MIC Candida tropicalis “R”” value (Candida tropicalis “R”) was 2.0 µg/mL (≈ 1.08 µM). The “MIC Candida tropicalis “S”” value (Candida tropicalis “S”) was 8.1 µg/mL (≈ 4.35 µM).
